In patent US20060183773A1, “Uses of methylphenidate derivatives” (priority 2005, published 2006):

Legend:
TNFα = TNFα release from LPS-stimulated THP-1 monocytes, ELISA; format: cell-based, human; conditions: THP-1, LPS 200 ng/ml, Cpd II 15 μg/ml, Dex 10 μM
Description: THP-1 is a monocyte cell line obtained from American Type Culture Collection (ATCC) (catalog no. TIB-202). […] After 1 hour, lipopolysaccharide (LPS) (obtained from Sigma) was added to the cultures to give a final concentration of 200 ng/ml, and the cells were then incubated for an additional 4 hours or for an additional 24 hours. After the incubation, the cells were centrifuged, and the supernatants were collected. The concentrations of IL-8 and TNFα in the supernatants were determined by ELISA.
The TNFα ELISA was performed as described in Example 2.

MEK1 = assay: Custom AntibodyArray, TRiPS cells: MEK1; format: cell-based, human; conditions: 15 μg/ml, 30 minutes
Description: (§1) Day 18 TRiPS cells, 1×10^6, were incubated for 30 minutes at 37° C., either with nothing added (“Nil”), with 1 μl CD3/CD28 Dynabeads (Dynal, Oslo, Norway) (“CD3/CD28 beads”) per 100,000 cells, or with CD3/CD28 beads and 15 μg/ml of the compound of formula II (Cpd II). After the incubation, the cells were lysed in Cell-Lytic Mammalian Cell Extraction Reagent (Sigma). After centrifugation to pellet cellular debris, the supernatants (cell extracts) were obtained.
(§2) The cell extracts (supernatants) were then analyzed using a Custom AntibodyArray™ manufactured by Hypromatrix Inc., Worcester, Mass., following the manufacturer's instructions. The Custom AntibodyArray™ is a nylon membrane blotted with antibodies to the proteins listed below. Briefly, the cell extracts were incubated with duplicate Custom AntibodyArray™'s for 2 hours at room temperature with slow shaking, followed by three washes with Tris buffer (150 mM NaCl, 25 mM Tris, 0.05% Tween-20, pH 7.5). HRP-labeled antibodies specific for phosphorylated-tyrosine, phosphorylated-serine and phosphorylated-threonine in Tris buffer were added, and the arrays incubated for 2 hours. After three more washes with Tris buffer, a peroxidase-reactive luminescent substrate was added. The arrays were visualized by exposure to X-ray film. Densitometry of the X-ray films was measured by scanning and computer analysis.

[1] = test system: MC/9 murine fibroblast cell line; assay: MC/9 cell proliferation, Promega cell titer assay; format: cell-based; conditions: 72 hours
Description: Cells of the MC/9 murine […] cell line (obtained from ATCC, catalog no. CRL-8305) were placed into the wells of a 96-well tissue culture plate at 25,000 cells/well. The culture medium was Delbecco's Modified Eagle's Medium (DMEM) (obtained from Cambrex) containing 10% fetal calf serum (FCS) (obtained from ATCC). Nil control wells contained no additives. The remaining wells contained either 25 ng/ml murine nerve growth factor (NGF) (obtained from Upstate Biotechnology, Lake Placid, NY) or 25 ng/ml NGF and 5% TSTIM (a culture supplement prepared from rats and containing concanavalin A which was obtained from BD Biosciences). […] After 72 hours of culture at 37° C. and 5% CO2, cell proliferation was evaluated by the Promega cell titer assay as described in Example 1.

TCR-positive cells = assay: Annexin staining of TCR-positive PBL, flow cytometry (cell death); format: cell-based, human
Description: After this incubation, PHA was added to give a final concentration of 5 μg/ml, and the cells were incubated for an additional 72 hours at 37° C., 5% CO2. All cultures were performed in triplicate. Cells were then removed by centrifugation at 1000 rpm for 10 minutes.
The cells were further analyzed by flow cytometry. Annexin was used to determine populations of dead or dying cells. Anti-CD69 antibody was used to establish the level of cellular activation. Antibody to T-cell receptor αβ (TCR) was also used. Recombinant Annexin 5 (PE and FITC conjugates) and the antibodies were all purchase from Caltag (Burlingham, Calif.) and used following the manufacturer's recommendations.

STAT6 = assay: Custom AntibodyArray, TRiPS cells: STAT6; format: cell-based, human; conditions: 15 μg/ml, 30 minutes
Description: as §1, §2

IL-7y = assay: Custom AntibodyArray, TRiPS cells: IL-7y; format: cell-based, human; conditions: 15 μg/ml, 30 minutes
Description: as §1, §2

STAT2 = assay: Custom AntibodyArray, TRiPS cells: STAT2; format: cell-based, human; conditions: 15 μg/ml, 30 minutes
Description: as §1, §2

[2] = test system: peripheral blood lymphocytes (PBL); assay: Cell clumping of PHA-stimulated PBL (microscopy); format: cell-based, human; conditions: PBL of donor GR283; 5 μg/ml PHA; compound 5, 15, 50 μg/ml; 24 h pre-incubation + 72 h
Description: Whole blood was drawn from GR283, a human volunteer with known allergies, into a glass vacutainer tube containing no anticoagulant. This blood was allowed to clot, and the serum was removed by centrifugation and then heat inactivated by placing it in a water bath at 56° C. for 30 minutes. Whole blood from GR283 was also drawn into a glass vacutainer tube containing heparin and used for peripheral blood lymphocytes (PBL) isolation as follows. Whole blood was layered over room temperature Histopaque 1077 solution and centrifuged at 2000 rpm for 15 minutes at room temperature. Cells at the plasma-Histopaque interface were then removed and washed with culture medium (IMDM medium with 10% heat-inactivated GR283 serum plus 1% penicillin/streptomycin) at 37° C.
The compound of formula II (see above) and methylphenidate (both obtained from Dr. Jeffrey D. Winkler, University of Pennsylvania, Philadelphia, Pa.) in culture medium were added to wells of a 96-well plate to give final concentrations of 5 μg/ml, 15 μg/ml and 50 μg/ml of the compound of formula II and of methylphenidate. […] Then, GR283's PBL in culture medium were added to the wells to give a final concentration of 150,000 cells per well, and the plates were incubated at 37° C., 5% CO2 for 24 hours. […]

JAK2 = assay: Custom AntibodyArray, TRiPS cells: JAK2; format: cell-based, human; conditions: 15 μg/ml, 30 minutes
Description: as §1, §2

IL-8 = IL-8 release by TNFα-stimulated HUVECs, ELISA; format: cell-based, human; conditions: HUVECs lot 8710, no TNFα, no additives 207.15

## COC(=O)C(c1ccc(-c2ccccc2)cc1)C1CCCCN1 (stereo not drawn) [Cpd II]
TNFα; Homo sapiens, 24 hours
  inhibition at 15 µg/mL: 53%
TNFα; 24 hours, LPS alone 138.655
  Mean TNFα Concentration: 65.370 ± 0.891 pg/mL
TNFα
  release of TNFα from LPS-stimulated monocytes (in words): significantly inhibited the release of TNFα
MEK1
  Effect of Cpd II on the protein in CD3/CD28 stimulated TRiPS cells: Decreased level to below basal levels (Nil control)
[1]; MC/9, NGF 25 ng/ml + 1 μg/ml, NGF + water 0.101
  Mean OD 530 nm: 0.117 ± 0.015
[1]; MC/9, NGF 25 ng/ml + 5 μg/ml, NGF + water 0.101
  Mean OD 530 nm: 0.108 ± 0.012
[1]; MC/9, NGF 25 ng/ml + 15 μg/ml, NGF + water 0.101
  Mean OD 530 nm: 0.049 ± 0.016
[1]; MC/9, NGF + TSTIM + 1 μg/ml, NGF + TSTIM + water 0.365
  Mean OD 530 nm: 0.428 ± 0.027
[1]; MC/9, NGF + TSTIM + 5 μg/ml, NGF + TSTIM + water 0.365
  Mean OD 530 nm: 0.373 ± 0.016
[1]; MC/9, NGF + TSTIM + 15 μg/ml, NGF + TSTIM + water 0.365
  Mean OD 530 nm: 0.326 ± 0.024
TCR-positive cells; 15 μg/ml, no PHA, background 7.3%
  Annexin staining of TCR-positive cells: 23%
TCR-positive cells; 50 μg/ml, no PHA, background 7.3%
  Annexin staining of TCR-positive cells: 45%
TCR-positive cells; PHA 5 μg/ml plus 15 μg/ml, PHA alone 67%
  Annexin staining of TCR-positive cells: 62%
TCR-positive cells; PHA 5 μg/ml plus 50 μg/ml, PHA alone 67%
  Annexin staining of TCR-positive cells: 87%
STAT6
  Effect of Cpd II on the protein in CD3/CD28 stimulated TRiPS cells: Slightly decreased the level
IL-7y
  Effect of Cpd II on the protein in CD3/CD28 stimulated TRiPS cells: Decreased level back to basal levels (Nil control)
STAT2
  Effect of Cpd II on the protein in CD3/CD28 stimulated TRiPS cells: No effect
[2]
  cell clumping induced by PHA: reduced the amount of cell clumping induced by 5 μg/ml PHA in a dose-dependent manner
JAK2
  Effect of Cpd II on the protein in CD3/CD28 stimulated TRiPS cells: Activated
IL-8; 15 μg/ml
  Mean IL-8: 400.35 pg/mL
IL-8; 30 μg/ml
  Mean IL-8: 0 pg/mL
